Reference: patent EP2537923A1, “Method for activation of specific peripheral blood mononuclear cells” (Oncotyrol Center for Personalized Cancer Medicine GmbH, priority 2011, dated 2012)

Tested on: human PBMCs
Experiment: Stimulation of PBMCs with anti-CD1b antibody and/or IL-2, cytokines measured in culture supernatants
Format: cell-based
Settings: PMB at 10 µg/ml (60 U/ml); anti-CD16 as Fc γ receptor blocking antibody
From the text: PBMCs are then separated from whole blood or from leukapheresis products. Any method for separating mononuclear cells may be used. For example, the Ficoll separation method, i.e., a Ficoll-Paque density gradient is frequently used. For this purpose LSM1077 Lymphocyte Separation Medium (PAA, Pasching, Austria) in combination with Leucosep (greiner bio-one, Frickenhausen, Germany) can be used for the optimal separation of PBMCs.
The whole PBMCs or the CD56-positive PBMCs obtained are resuspended preferably at cell numbers of 1.0-1.5 x 10^6/ml in a cell culture medium such as RPMI-1640 (Lonza, Basel, Switzerland), AIM-V (Invitrogen, Carlsbad, CA, USA) or CellGro SCGM (CellGenix, Freiburg, Germany). The cell culture medium may be further supplemented with autologous or clinical quality heterologous serum or plasma at 1-20%. There is no limitation for the culture vessels used, which may be a plate, laboratory dish, flask, bag typically used for cell cultivation.
An antibody directed against CDlb (clone B-B5 from Diaclone, Besancon, France or clone WM25 from ImmunoKontact via AMS Biotechnology, Lugano, Switzerland) is added to these cultures. […] Activation as detected by the BD FastImmune (BD Biosciences, San Jose, CA, USA) of NK cells and T cells (both αß T cells and γδ T cells) occurs already within the first 12 to 16 hours. […]

With polymyxin B [PMB] the “effect on IFN-γ production / response induced by CDlb antibodies” value was “failed to abolish”.
